Data from patent US8236835B2, “Heterocyclic inhibitors of stearoyl-CoA desaturase” (Novartis AG, priority 2006, dated 2012).

Structure (SMILES) | melting point [°C]
Cc1nc(N2CCCC2=O)sc1C(=O)NCc1ccccc1 [Example 1, N-benzyl-4-methyl-2-(2-oxopyrrolidin-1-yl)thiazole-5-carboxamide] | 222 to 224
Cc1nc(N2CCCCC2=O)sc1C(=O)NCc1ccccc1 [Example 1.2, N-benzyl-4-methyl-2-(2-oxopiperidin-1-yl)thiazole-5-carboxamide] | 175 to 176
Cc1nc(N2CCC(Cc3ccc(C(F)(F)F)cc3)C2=O)sc1C(=O)NCc1ccc(F)cc1 (stereo not shown) [Example 2, N-(4-fluorobenzyl)-4-methyl-2-(2-oxo-3-(4-(trifluoromethyl)benzyl)pyrrolidin-1-yl)thiazole-5-carboxamide] | 175 to 176
Cc1nc(N2CCC(Cc3ccc(F)cc3)C2=O)sc1C(=O)NCc1ccc(F)cc1 (stereo not shown) [Example 2.1, N-(4-fluorobenzyl)-2-(3-(4-fluorobenzyl)-2-oxopyrrolidin-1-yl)-4-methylthiazole-5-carboxamide] | 196 to 197
Cc1nc(N2CCC(Cc3ccc(OC(F)F)cc3)C2=O)sc1C(=O)NCc1ccc(F)cc1 (stereo not shown) [Example 2.2, 2-(3-(4-(difluoromethoxy)benzyl)-2-oxopyrrolidin-1-yl)-N-(4-fluorobenzyl)-4-methylthiazole-5-carboxamide] | 143 to 145
Cc1nc(N2CCC(Cc3ccc(OC(F)(F)F)cc3)C2=O)sc1C(=O)NCc1ccc(F)cc1 (stereo not shown) [Example 2.3, N-(4-fluorobenzyl)-4-methyl-2-(2-oxo-3-(4-(trifluoromethoxy)benzyl)pyrrolidin-1-yl)thiazole-5-carboxamide] | 165 to 166
Cc1nc(N2CCC(Cc3ccc(C(F)(F)F)cc3)C2=O)sc1C(=O)NCc1ccccc1 (stereo not shown) [Example 2.4, N-benzyl-4-methyl-2-(2-oxo-3-(4-(trifluoromethyl)benzyl)pyrrolidin-1-yl)thiazole-5-carboxamide] | 174 to 175
Cc1nc(N2CCC(Cc3ccc(OC(F)F)cc3)C2=O)sc1C(=O)NCc1ccccc1 (stereo not shown) [Example 2.5, N-benzyl-2-(3-(4-(difluoromethoxy)benzyl)-2-oxopyrrolidin-1-yl)-4-methylthiazole-5-carboxamide] | 132 to 133
Cc1nc(N2CCCC(Cc3ccc(C(F)(F)F)cc3)C2=O)sc1C(=O)NCc1ccccc1 (stereo not shown) [Example 2.6, N-benzyl-4-methyl-2-(2-oxo-3-(4-(trifluoromethyl)benzyl)piperidin-1-yl)thiazole-5-carboxamide] | 217 to 218
Cc1ccc(CC2CCCN(c3nc(C)c(C(=O)NCc4ccccc4)s3)C2=O)cc1 (stereo not shown) [Example 2.7, N-benzyl-4-methyl-2-(3-(4-methylbenzyl)-2-oxopiperidin-1-yl)thiazole-5-carboxamide] | 110 to 113
Cc1nc(N2CCCC(Cc3cccc(F)c3)C2=O)sc1C(=O)NCc1ccccc1 (stereo not shown) [Example 2.8, N-benzyl-2-(3-(3-fluorobenzyl)-2-oxopiperidin-1-yl)-4-methylthiazole-5-carboxamide] | 170 to 171
COc1ccc(CC2CCCN(c3nc(C)c(C(=O)NCc4ccccc4)s3)C2=O)cc1 (stereo not shown) [Example 2.9, N-benzyl-2-(3-(4-methoxybenzyl)-2-oxopiperidin-1-yl)-4-methylthiazole-5-carboxamide] | 116 to 118
Cc1nc(N2CCCC(Cc3cc(F)ccc3F)C2=O)sc1C(=O)NCc1ccccc1 (stereo not shown) [Example 2.10, N-benzyl-2-(3-(2,5-difluorobenzyl)-2-oxopiperidin-1-yl)-4-methylthiazole-5-carboxamide] | 144 to 145
Cc1nc(N2CCCC(Cc3ccccc3)C2=O)sc1C(=O)NCc1ccccc1 (stereo not shown) [Example 2.11, N-benzyl-2-(3-benzyl-2-oxopiperidin-1-yl)-4-methylthiazole-5-carboxamide] | 162 to 164
Cc1nc(N2CCCC(Cc3ccc(F)cc3)C2=O)sc1C(=O)NCc1ccccc1 (stereo not shown) [Example 2.12, N-benzyl-2-(3-(4-fluorobenzyl)-2-oxopiperidin-1-yl)-4-methylthiazole-5-carboxamide] | 154 to 155
Cc1nc(N2CCCC(Cc3ccc(F)cc3)C2=O)sc1C(=O)NCc1cccc(F)c1 (stereo not shown) [Example 2.13, N-(3-fluorobenzyl)-2-(3-(4-fluorobenzyl)-2-oxopiperidin-1-yl)-4-methylthiazole-5-carboxamide] | 173 to 175
Cc1nc(N2CCCC(Cc3ccc(C(F)(F)F)cc3)C2=O)sc1C(=O)NCc1cccc(F)c1 (stereo not shown) [Example 2.14, N-(3-fluorobenzyl)-4-methyl-2-(2-oxo-3-(4-(trifluoromethyl)benzyl)piperidin-1-yl)thiazole-5-carboxamide] | 177 to 178
Cc1nc(N2CCC(CC3CC3)C2=O)sc1C(=O)NCc1ccc(F)cc1 (stereo not shown) [Example 3, 2-(3-(cyclopropylmethyl)-2-oxopyrrolidin-1-yl)-N-(4-fluorobenzyl)-4-methylthiazole-5-carboxamide] | 153 to 155
Cc1nc(N2CCC(NCCC3CC3)C2=O)sc1C(=O)NCc1ccc(F)cc1 (stereo not shown) [Example 5, 2-(3-(2-cyclopropylethylamino)-2-oxopyrrolidin-1-yl)-N-(4-fluorobenzyl)-4-methylthiazole-5-carboxamide] | 151 to 152
Cc1nc(N2CC(Cc3ccccc3)CC2=O)sc1C(=O)NCc1ccccc1 (stereo not shown) [Example 6, N-benzyl-2-(4-benzyl-2-oxopyrrolidin-1-yl)-4-methylthiazole-5-carboxamide] | 143 to 144
Cc1nc(N2C[C@@H](O)CC2=O)sc1C(=O)NCc1ccccc1 [Example 7, (S)-N-benzyl-2-(4-hydroxy-2-oxopyrrolidin-1-yl)-4-methylthiazole-5-carboxamide] | 203 to 204
Cc1nc(N2CCC(Cc3ccc(F)cc3)C2=O)sc1C(=O)NCc1cccnc1 (stereo not shown) [Example 8, 2-(3-(4-fluorobenzyl)-2-oxopyrrolidin-1-yl)-4-methyl-N-(pyridin-3-ylmethyl)thiazole-5-carboxamide] | 169 to 170
Cc1nc(N2CCCC(C(O)c3ccccc3)C2=O)sc1C(=O)NCc1ccccc1 (stereo not shown) [Example 10, N-benzyl-2-(3-(hydroxy(phenyl)methyl)-2-oxopiperidin-1-yl)-4-methylthiazole-5-carboxamide] | 74 to 75
Cc1nc(N2CCCC(Cc3cccnc3)C2=O)sc1C(=O)NCc1ccccc1 (stereo not shown) [Example 11, N-benzyl-4-methyl-2-(2-oxo-3-(pyridin-3-ylmethyl)piperidin-1-yl)thiazole-5-carboxamide] | 140 to 141

Continued, values first:

melting point [°C] | Structure (SMILES)
124 to 126 | Cc1nc(N2CCCC(CCc3ccccc3)C2=O)sc1C(=O)NCc1ccccc1 (stereo not shown) [Example 3.1, N-benzyl-4-methyl-2-(2-oxo-3-phenethylpiperidin-1-yl)thiazole-5-carboxamide]
140 to 141 | Cc1nc(N2CCCC(CCCc3ccccc3)C2=O)sc1C(=O)NCc1ccccc1 (stereo not shown) [Example 3.2, N-benzyl-4-methyl-2-(2-oxo-3-(3-phenylpropyl)piperidin-1-yl)thiazole-5-carboxamide]
123 to 124 | Cc1nc(N2CCC(NCc3ccc(F)cc3)C2=O)sc1C(=O)NCc1ccc(F)cc1 (stereo not shown) [Example 5.1, N-(4-fluorobenzyl)-2-(3-(4-fluorobenzylamino)-2-oxopyrrolidin-1-yl)-4-methylthiazole-5-carboxamide]
142 to 143 | Cc1nc(N2CCC(NCCC(F)(F)F)C2=O)sc1C(=O)NCc1ccc(F)cc1 (stereo not shown) [Example 5.2, N-(4-fluorobenzyl)-4-methyl-2-(2-oxo-3-(3,3,3-trifluoropropylamino)pyrrolidin-1-yl)thiazole-5-carboxamide]
39 to 40 | Cc1nc(N2CCCC(NCc3ccc(C(F)(F)F)cc3)C2=O)sc1C(=O)NCc1ccccc1 (stereo not shown) [Example 5.3, N-benzyl-4-methyl-2-(2-oxo-3-(4-(trifluoromethyl)benzylamino)piperidin-1-yl)thiazole-5-carboxamide]
125 to 126 | Cc1nc(N2CCCC(NCC3CC3)C2=O)sc1C(=O)NCc1ccccc1 (stereo not shown) [Example 5.4, N-benzyl-2-(3-(cyclopropylmethylamino)-2-oxopiperidin-1-yl)-4-methylthiazole-5-carboxamide]
203 to 204 | Cc1nc(N2C[C@H](O)CC2=O)sc1C(=O)NCc1ccccc1 [Example 7.1, (R)-N-benzyl-2-(4-hydroxy-2-oxopyrrolidin-1-yl)-4-methylthiazole-5-carboxamide]
158 to 160 | Cc1nc(N2CCC(Cc3ccc(OC(F)(F)F)cc3)C2=O)sc1C(=O)NCc1cccnc1 (stereo not shown) [Example 8.1, 4-methyl-2-(2-oxo-3-(4-(trifluoromethoxy)benzyl)pyrrolidin-1-yl)-N-(pyridin-3-ylmethyl)thiazole-5-carboxamide]
171 to 172 | CCc1ccc(/C=C2\CCCN(c3nc(C)c(C(=O)NCc4ccccc4)s3)C2=O)s1 [Example 10.1, N-benzyl-2-(3-((5-ethylthiophen-2-yl)methylene)-2-oxopiperidin-1-yl)-4-methylthiazole-5-carboxamide]
206 to 208 | Cc1nc(N2CCC/C(=C\c3cccnc3)C2=O)sc1C(=O)NCc1ccccc1 [Example 10.2, N-benzyl-4-methyl-2-(2-oxo-3-(pyridin-3-ylmethylene)piperidin-1-yl)thiazole-5-carboxamide]
